Data: PubChem BioAssay AID1035470 (Broad Institute, 2014)
Results filed as inconclusive are left out. Activity calls are given as the source filed them.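 The calls were made as follows: active = compound lowering the normal-ribosome reporter at least twice as much as the humanized-ribosome reporter, growth loss under a set limit; inconclusive = no clear call, values can overlap the other calls; inactive = the rest.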

Test system: E. coli WT-GFP vs G2058-humanized RFP, fluorescence, 24 h
Experiment: growth inhibition of wild-type GFP E. coli versus G2058-humanized strain, dose response, G2058 mutant RFP vs wild-type GFP, cherry-pick, two tests (AID 1035470)
[1] = E. coli WT-GFP vs G2058-humanized RFP mixed culture, total growth OD600, 24 h
[2] = measured here: G2058 humanized mutant RFP growth

Row | SMILES | AC50 | AC50 [1] [µM] | AC50 [2] [µM]
1 | CCOC(=O)c1sc(NC(=O)CN2CCN(c3ccccc3)CC2)nc1C | > 100 µM (inactive) | > 100 | 
2 | Cc1cc(OCC(=O)N(Cc2ccco2)C2CCS(=O)(=O)C2)ccc1Cl (centres undefined) | > 100 µM (inactive) | > 100 | 
3 | Cc1nn(-c2cccc(Cl)c2)nc1C(=O)O | > 100 µM (inactive) | > 100 | 
4 | C=CCn1c(C)cc(C(=O)CSc2nnc(C3CC3)n2C2CC2)c1C |  |  | 48.6
5 | CC1Cc2cc(S(=O)(=O)N3CCN(c4cccc(Cl)c4)CC3)ccc2N1C(=O)C1CC1 (centres undefined) |  | > 100 | 
6 | O=C(CCCSc1nc2ccccc2s1)NCc1ccc2c(c1)OCO2 | > 100 µM (inactive) |  | 
7 | COc1ccc(OC)c(C(=O)COC(=O)c2ccc([N+](=O)[O-])o2)c1 | > 100 µM (inactive) | > 100 | 
8 | Cc1nnc2sc(SCC(=O)Nc3ccc(Br)cc3)nn2c1=O | > 100 µM (inactive) |  | > 100
9 | Cc1ccc(-c2c(=O)n(O)c3ccccc3[n+]2[O-])cc1 |  |  | > 100
10 | CN(c1ccccc1)S(=O)(=O)c1cccc(NC(=O)CCNC(=O)c2ccc([N+](=O)[O-])cc2)c1 | > 100 µM (inactive) |  | 
11 | CC(C)(Nc1ccccc1)C(=O)c1ccccc1 |  | > 100 | 
12 | O=C(CSc1nc(C2CC2)nc2ccccc12)Nc1ccccc1N1CCOCC1 | > 100 µM (inactive) | > 100 | 
13 | CCCCCc1nnc(NC(=O)C2COc3ccccc3O2)s1 (centres undefined) | > 100 µM (inactive) | > 100 | 23.2
14 | CCOC(=O)c1ccc(NC(=O)COc2ccc(CNCCO)cc2OCC)cc1 | > 100 µM (inactive) |  | 
15 | Brc1cc2c(cc1Br)OCCOCCOCCO2 | > 100 µM (inactive) | > 100 | > 100
16 | CN(CCOc1ccccc1)C(=O)c1ccc(OC2CCN(C(=O)C3CC3)CC2)cc1 | > 100 µM (inactive) | > 100 | 
17 | Cc1ccccc1S(=O)(=O)c1cc2ccccc2nc1N |  | > 100 | 
18 | COc1cccc(CNC(=O)CCSCc2ccccc2F)c1 | > 100 µM (inactive) |  | > 100
19 | COCC#Cc1ccc2c(c1)O[C@H](CN(C)C(=O)c1ccccc1)[C@@H](C)CN([C@H](C)CO)S2(=O)=O |  | > 100 | 
20 | COC(=O)CNC(=O)COC(=O)c1ccc(Cl)nc1 |  | > 100 | 
21 | Nc1[nH]c(C(=O)c2ccccc2)c(-c2ccc(Br)cc2)c1C(=O)c1cccs1 | > 100 µM (inactive) | > 100 | 
22 | CCC1(C(=O)OC)CCc2c(cc(OC)c3ccccc23)C1=O (centres undefined) | > 100 µM (inactive) |  | 

Row | SMILES | AC50 | AC50 [1] [µM] | AC50 [2] [µM]
23 | CCOc1ccccc1C(=O)OCC(=O)NCCc1ccc(OC)cc1 | > 100 µM (inactive) | 50.9 | 
24 | Cc1cccc(OCCC(=O)Nc2ccc(F)c(F)c2)c1 | > 100 µM (inactive) |  | 
25 | Cc1ccc(Cn2cnc3ccccc32)cc1 | > 100 µM (inactive) |  | 
26 | O=C1c2cccc(OCC(=O)N3CCCc4ccccc43)c2CCN1Cc1cccnc1 | > 100 µM (inactive) | > 100 | 
27 | CN(C)S(=O)(=O)N1CCN(c2ccccc2Cl)CC1 | > 100 µM (inactive) | > 100 | 
28 | CCOc1cc(/C=C(\CC(=O)O)c2nc3ccccc3s2)ccc1OC | > 100 µM (inactive) |  | 
29 | O=C(COC(=O)C1CC1)Nc1nc(-c2ccc(F)c(F)c2)cs1 |  | > 100 | 
30 | Cn1c(-[n+]2c(-c3ccccc3)cc(-c3ccccc3)cc2-c2ccccc2)nc2c([N+](=O)[O-])cccc21 | > 100 µM (inactive) |  | 
31 | Cc1ccc(NC(=O)c2ccc([N+](=O)[O-])s2)cc1S(=O)(=O)N1CCOCC1 | > 100 µM (inactive) | > 100 | 
32 | O=C(Nc1cccc(O)c1)c1cccc(S(=O)(=O)Nc2cccc(O)c2)c1 | > 100 µM (inactive) |  | 
33 | Cc1cccc(NC(=O)c2c(C)nn(-c3ccccc3)c2Cl)c1 |  | > 100 | 
34 | Cc1ccc2nc(-c3ccc(Cl)cc3)c(Cc3ccccc3C(F)(F)F)n2c1 |  | > 100 | 
35 | O=[N+]([O-])c1cncc([N+](=O)[O-])c1Nc1cccc(O)c1 | > 100 µM (inactive) | > 100 | 
36 | CCCC(=O)Nc1cccc(C(=O)Nc2ccccc2OCC)c1 | > 100 µM (inactive) |  | 
37 | COc1ccc(Cn2c(=O)c3[nH]cnc3n(-c3ccc(C)cc3)c2=O)cc1 | > 100 µM (inactive) | > 100 | 
38 | Cc1cc(C)c(S(=O)(=O)NCCOc2ccccc2)c(C)c1-n1cnnn1 | > 100 µM (inactive) |  | 
39 | Cc1noc(C)c1NC(=O)Nc1ccc2c(c1)C(=O)N([C@@H](C)CO)C[C@@H](C)[C@H](CN(C)C(=O)Nc1ccc3c(c1)OCO3)OCCCC[C@H](C)O2 |  | > 100 | 
40 | O=C(CSc1ccc(-c2cccnc2)nn1)N1CCCc2ccccc21 | > 100 µM (inactive) |  | 
41 | C=CCn1c(SCc2n[nH]c(=S)n2-c2ccccc2)nnc1-c1ccccc1 | > 100 µM (inactive) | > 100 | 
42 | CCOC(=O)Cc1nnc(NC(=O)CSc2nc3ccccc3[nH]2)s1 | > 100 µM (inactive) |  | 
43 | O=C(Nc1cccnc1)c1ccc([N+](=O)[O-])o1 | > 100 µM (inactive) | > 100 | 
44 | Cc1cc2nc(SCC(=O)O)nc(C)c2cc1C | > 100 µM (inactive) | > 100 | 

Row | SMILES | AC50 | AC50 [1] [µM] | AC50 [2] [µM]
45 | COc1cc2c(c(OC)c1OC)C(c1ccc3c(c1)OCO3)CC(=O)O2 (centres undefined) | > 100 µM (inactive) | > 100 | 
46 | Cc1nnn(C23CC4CC(CC(CC(=O)Nc5ccc(C)c(C)c5)(C4)C2)C3)n1 | > 100 µM (inactive) | > 100 | 
47 | CC(C)(C)c1ccc(-c2noc(CCC(=O)NCc3ccco3)n2)cc1 | > 100 µM (inactive) | > 100 | > 100
48 | CCOC(=O)c1[nH]c2ccccc2c1NC(=O)c1ccc(Br)o1 | > 100 µM (inactive) | > 100 | 
49 | CCN(CC)S(=O)(=O)c1ccc(N2CCCC2)c(NC(=O)c2ccccc2OC)c1 | > 100 µM (inactive) |  | 
50 | CC(C)CNC(=O)c1cccc(NC(=O)C(C)Oc2ccccc2)c1 (centres undefined) | > 100 µM (inactive) |  | 
51 | C=CCN(c1ccccc1)S(=O)(=O)c1ccc(Cl)c(C(=O)OCC(=O)NCCCN2CCCC2=O)c1 |  | > 100 | 
52 | Cc1cc(C(C)(C)C)oc1C(=O)N(CC(=O)NC1CCCC1)c1c(C)cccc1C | > 100 µM (inactive) |  | 
53 | CCCN1C(=O)C(O)(c2c(C)[nH]c3ccccc23)c2ccccc21 (centres undefined) |  | > 100 | 
54 | O=C(NCCc1ccccn1)c1cccc(S(=O)(=O)N2CCc3ccccc32)c1 | > 100 µM (inactive) | > 100 | 
55 | CCOC(=O)c1ccc(CC(=O)c2oc3cc(O)ccc3c2C)o1 | > 100 µM (inactive) |  | 
56 | CCn1ccnc1CN1CCCC(C(=O)c2ccc3cc(OC)ccc3c2)C1 (centres undefined) | > 100 µM (inactive) | > 100 | 
57 | CCn1c(SCC(=O)Nc2ccc(OC)cc2)nc2nc3c(cc2c1=O)CCCC3 |  | 47.7 | 
58 | Cc1ccc(C(=O)Nc2ccc3ncccc3c2)cc1 | > 100 µM (inactive) |  | 
59 | CC(C)(C)c1ccc(S(=O)(=O)NCc2ccc(C(=O)NCc3ccccn3)cc2)cc1 | > 100 µM (inactive) | > 100 | 
60 | C[C@@H]1CN([C@@H](C)CO)C(=O)CCCn2nncc2CO[C@H]1CN(C)C(=O)Nc1cccc(C(F)(F)F)c1 |  | > 100 | 
61 | Cc1c(C(=O)O)oc2ccc(S(=O)(=O)NC3CCCCCCC3)cc12 | > 100 µM (inactive) |  | 
62 | COc1cc2c(cc1OC)CN(CC(=O)Nc1ccccc1SC)CC2 | > 100 µM (inactive) | > 100 | 47.2
63 | CCN(CC(=O)Nc1cccc(C#N)c1)CC(=O)Nc1cccc(OC)c1 |  | > 100 | 
64 | O=C(C[n+]1cc(-c2ccc(Cl)c(Cl)c2)n2c1CCC2)OCc1ccccc1 | > 100 µM (inactive) | > 100 | 
65 | COc1ccc(C#Cc2ccc([C@H]3[C@@H](CO)N4CCCCN(C(=O)Nc5cccc(F)c5)C[C@H]34)cc2)cc1 |  | > 100 | 
66 | CC(=O)c1ccc(OCC(=O)Nc2ccc3c(c2)CCC3)cc1 | > 100 µM (inactive) | > 100 | 

Row | SMILES | AC50 | AC50 [1] [µM] | AC50 [2] [µM]
67 | COc1ccc(NC(=O)Nc2cccc3c2O[C@H](CN(C)S(=O)(=O)c2ccc(Cl)cc2)[C@H](C)CN([C@H](C)CO)C3=O)cc1 | > 100 µM (inactive) |  | 
68 | Fc1cccc(CCN2C(=S)NC[C@@H]2CC2CCCCC2)c1 | > 100 µM (inactive) |  | 
69 | COc1ccc(C(CC(=O)c2ccc(O)cc2)S(=O)(=O)c2ccc(C)cc2)cc1 (centres undefined) | > 100 µM (inactive) |  | 
70 | COc1ccc(CNc2ncnc3cc(OC)c(OC)cc23)cc1OC | > 100 µM (inactive) | > 100 | 
71 | Cc1ccc(S(=O)(=O)Nc2ccccc2CNc2cccc(C)n2)cc1 | > 100 µM (inactive) | > 100 | 
72 | CCN(CC)CCN(C(=O)c1ccc2c(c1)OCCO2)c1nc2c(Cl)cccc2s1 | > 100 µM (inactive) |  | 
73 | CC(=O)Nc1ccc(OCc2nnc(-c3ccccc3)o2)cc1 | > 100 µM (inactive) | > 100 | 
74 | Cc1csc2c(N3CCC(C(=O)O)CC3)ncnc12 | > 100 µM (inactive) | > 100 | 50.4
75 | COc1cc(NC(=O)c2ccc(Cl)cc2)c(OC)cc1NC(=O)CN1CCCCC1 |  | > 100 | 
76 | CC(C)(C)CC(=O)Nc1ccccc1N1CCN(c2ccccc2)CC1 | > 100 µM (inactive) |  | 
77 | CCCCCCC(=O)N1CCCC(c2nc(-c3cccc(OC)c3)no2)C1 (centres undefined) | > 100 µM (inactive) |  | > 100
78 | Cc1ccc(C)c(N2CCN(C(=O)CCS(=O)(=O)c3ccc4c(c3)oc(=O)n4C)CC2)c1 |  | > 100 | 
79 | CCCN(CC(=O)Nc1ccccc1C)C(=O)c1cccc(S(=O)(=O)N2CCc3ccccc3C2)c1 | > 100 µM (inactive) | > 100 | 
80 | O=C(Nc1ccc2nc(-c3cccnc3)[nH]c2c1)c1ccco1 | > 100 µM (inactive) |  | > 100
81 | COc1cccc(-c2ccc(NC(=O)C3CCCN(Cc4cnn(C(C)C)c4)C3)cc2)c1 (centres undefined) | > 100 µM (inactive) |  | 
82 | CCOC(=O)c1c(CS(=O)(=O)c2ccccc2)n(C)c2cc(Br)c(O)cc12 | > 100 µM (inactive) |  | 
83 | O=C(Nc1ccc(Cl)cc1)N1C[C@H]2[C@@H](c3ccccc31)[C@@H](CO)N2C(=O)c1ccccn1 | > 100 µM (inactive) |  | 
84 | FC(F)(F)c1ccc(Cl)c(-n2c(Cc3cccs3)n[nH]c2=S)c1 | > 100 µM (inactive) |  | 
85 | Cc1cc(C)c(OCCN(C)Cc2ccccc2)c(Br)c1 |  | > 100 | 
86 | COC(=O)CC1COc2ccccc2N1C(=O)c1ccc(Br)cc1 (centres undefined) | > 100 µM (inactive) | > 100 | 
